Reference: patent US11931428B2, “Selective hydrogen sulfide probe and uses thereof” (Wake Forest University Health Sciences, priority 2019, dated 2024)

What was measured:
[1] = Stability in PBS buffer over a 24 h incubation period (fluorescence); assay type: physicochemical
Procedure: (§1) FIG. 2. Fluorescence response (λex: 330 nm) of probes (20 μM) at room temperature and under varying conditions: (A and B): (1): 24 hour incubation period in PBS buffer alone; (2): 24 hour incubation period in PBS buffer followed by the addition of Na2S (50 μM). (C and D): (1): 10 min incubation period in fetal bovine plasma alone; (2): 10 min incubation period in fetal bovine plasma and in the presence of Na2S (50 μM). AL1: 2A and 2C and AL3: 2B and 2D.
(§2) To further establish the increased durability of AL1 relative to AL3, we tested the stability of both compounds in PBS buffer over a 24 h incubation period (FIGS. 2A and 2B). […] The stability of AL1 and AL3 was also assessed in fetal bovine plasma (FIGS. 2C and 2D).

[2] = Selectivity of fluorescence turn-on towards H2S versus biological thiols and nucleophiles in PBS buffer; conditions: probe 20 μM
Procedure: FIG. 1. Fluorescence response (λex: 330 nm) of probes (20 μM) in PBS buffer (pH 7.4), at room temperature, and in the presence of various biological thiols and nucleophiles: (1) PBS buffer alone; (2) 50 μM Na2S; (3) 100 μM cysteine; (4) 1 mM glutathione; (5) 100 μM serine; (6) 100 μM lysine; (7) 1 mM glutathione+50 μM Na2S. (A): Probe AL1 and (B): Probe AL3.
To assess our hypothesis, the selectivity of our design towards H2S was first assessed by incubating AL1 (20 μM) with various biological thiols and nucleophiles in PBS buffer (FIG. 1A). After reacting for 10 min at room temperature, the resulting turn-on response was gauged using fluorescence spectroscopy. The results from this assay were indeed stunning. In the presence of 50 μM Na2S (an H2S equivalent at physiological pH) a greater than 100-fold increase in relative fluorescence intensity was observed. […] Moreover, this assay confirmed that AL1 is not consumed by the presence of other thiols and that its reactivity towards H2S is retained in their presence (FIG. 1A, Column 7). To confirm that the gem-dimethyl group affords enhanced differentiation, we also generated AL3 which lacks the steric shield alpha to the ester carbonyl.

HeLa cells = test: Confocal fluorescence imaging of H2S in live HeLa cells; assay type: cell-based; conditions: for fluorescence in cells upon treatment with Na2S / fluorescence in cells, probe alone (no Na2S): HeLa, AL2 10 μM; for fluorescence in cells upon treatment with Na2S: 50 μM Na2S, AL1 12.5 μM, ex 405 nm, em 452 nm; for fluorescence in cells, probe alone (no Na2S): AL1 12.5 μM 45 min then washed
Procedure: FIG. 4. (A) Visualization of H2S in live HeLa cells with AL1 (12.5 μm). Imaging: ex: 405 nm, em: 452 nm. (a and b): No Na2S added (control); (c and d): Addition of Na2S (50 μm). Scale bar is set to 20 μm. (B) Visualization of H2S in live HeLa cells with AL4 (5 μm). Imaging: ex: 561 nm, em: 587 nm. (e and f): No Na2S added (control); g and h: Addition of Na2S (25 μM). Scale bar is set to 20 μm.
FIG. 5. Fluorescence images of live HeLa cells treated with AL2 (10 μM); (a and b): No Na2S (control); (c and d): Addition of Na2S (50 μM); (e and f): Fluorescence images of HeLa cells pretreated with biotin (2 mM) followed by treatments with AL2 (10 μM) and Na2S (50 μM). Imaging: ex: 405 nm, em: 452 nm. Scale bar is set to 20 μm.
Probe AL1 was also shown to be useful in imaging H2S in live cells using confocal microscopy. Cultured HeLa cells were incubated with AL1 (12.5 μM) for 45 min and then washed to remove any excess probe. […] Probe AL4 utilizes resorufin as its latent fluorescent reporter which has the added benefit of longer excitation and emission wavelengths, further boosting its potential in tissue imaging applications.
(§3) As a proof of concept we generated AL2, a cancer cell-specific H2S probe, by coupling biotin to its amine handle (Scheme 1). W. X. Ren et al, Chem. Commun. 2015, 51, 10403-10418; X. Song et al, RSC Adv. 2017, 7, 15817-15822; M. H. Lee et al, Chem. Soc. Rev. 2018, 47, 28-52. Fluorescence imaging experiments were then conducted using both a biotin positive (HeLa) and biotin negative (HEK293) cell line to confirm its selective targeting and delivery. […] To confirm that AL2 was targeting biotin cell surface receptors, in a separate experiment, HeLa cells were pre-treated with biotin prior to the addition of AL2. […] The selectivity of AL2 was further established using HEK293 (noncancerous human embryonic kidney) cells.

[3] = Time-dependent and concentration-dependent fluorescence sensing of H2S in PBS buffer; conditions: AL1 20 μM, Na2S 50 μM, PBS buffer pH 7.4, room temperature
Procedure: FIG. 3. (A) Time-dependent fluorescence emission (λex: 330 nm) of AL1 (20 μM) in the presence of Na2S (50 μM). (B) Fluorescence intensity (λex: 330 nm) of AL1 ([…]) in response to increasing Na2S concentrations.
The efficiency of AL1 in sensing H2S in PBS buffer (pH 7.4) and at room temperature was also assessed (FIG. 3A). Under these conditions, the resulting fluorescence intensity reached a maximum in less than two minutes, highlighting that our designed probe is not only selective but also highly reactive towards H2S—a necessary feature for detecting analytes which are short-lived. To determine if AL1 could also be used to detect H2S quantitatively in buffer, the resulting fluorescence was measured in response to a series of different concentrations of H2S (FIG. 3B). Indeed, the ensuing fluorescence intensity increased in a linear fashion in the range of 0-20 μM H2S and with a detection limit of 0.05 μM.

[4] = Stability in fetal bovine plasma (fluorescence); assay type: in vitro ADME; conditions: probe 20 μM
Procedure: as §1, §2

HEK293 cells = test: Fluorescence imaging in live HEK293 cells (biotin negative); assay type: cell-based, human; conditions: AL2 10 μM, with or without Na2S 50 μM
Procedure: FIG. 6. Fluorescence images of live HEK293 cells. (a and b): Treatment with AL2 (10 μM) alone; (c and d): Treatment with AL2 (10 μM) followed by treatment with Na2S (50 μM). Imaging: ex: 405 nm, em: 452 nm. Scale bar is set to 20 μm.
as §3

CC(=O)NCCS[Se]CC(C)(C)C(=O)Oc1ccc2ccc(=O)oc2c1 [AL1]
fluorescence on addition of Na2S after prolonged exposure to buffer ([1]; 24 h in PBS buffer, then Na2S 50 μM): impressive turn-on fluorescence | stability in PBS buffer alone ([1]; probe 20 μM, 24 h incubation, room temperature): superb stability | increase in relative fluorescence intensity ([2]; 50 μM Na2S, PBS buffer pH 7.4, 10 min, room temperature, λex 330 nm): greater than 100 fold | reactivity towards H2S in the presence of other thiols ([2]; 1 mM glutathione + 50 μM Na2S, PBS pH 7.4 (FIG. 1A, Column 7)): retained | selectivity: fluorescence in the presence of other biologically relevant thiols and nucleophiles ([2]; 100 μM cysteine, 1 mM glutathione, 100 μM serine, 100 μM lysine, PBS pH 7.4, 10 min, room temperature): no increase in fluorescence was detected | fluorescence in cells upon treatment with Na2S (HeLa cells): strong blue fluorescence | fluorescence in cells, probe alone (no Na2S) (HeLa cells): did not observe any fluorescent cells | time for fluorescence intensity to reach a maximum [3]: less than two | turn-on response in fetal bovine plasma when Na2S present ([4]; 10 min, Na2S 50 μM): marked turn-on response | stability in fetal bovine plasma (fluorescence in the absence of Na2S) ([4]; 10 min incubation, room temperature): remarkable stability

CC(C)(C[Se]SCCNC(=O)CCCC[C@@H]1SC[C@@H]2NC(=O)N[C@@H]21)C(=O)Oc1ccc2ccc(=O)oc2c1 [AL2]
fluorescence in cells, even upon addition of exogenous Na2S (HEK293 cells): negligible fluorescence | fluorescence in cells pre-treated with biotin, after Na2S (HeLa cells; HeLa pretreated with biotin 2 mM, then AL2 10 μM and Na2S 50 μM): did not produce any fluorescence | fluorescence in cells upon treatment with Na2S (HeLa cells): strong blue fluorescent signal | fluorescence in cells, probe alone (no Na2S) (HeLa cells): minimal fluorescence
